Measured values from patent US6372774B1, “Derivatives of N-phenylpyrazoles” (Rhone-Poulenc Agriculture Ltd., priority 1985, dated 2002).

Experiments:
Assay type in all cases: in vivo
[1] = system: Megoura viciae (Vetch Aphid); experiment: Test 1(b): spray of infested tic bean plants, Megoura viciae; conditions: at 50 ppm, 2 days, score 0-3 per replicate, 4 replicates (maximum 12)
Method: (§1) One or more dilutions of the compounds to be tested were made in 50% aqueous acetone.
(b) Megoura viciae (Vetch Aphid)
Potted tic bean plants previously infected with mixed stages of Megoura were sprayed to run-off using a laboratory turntable sprayer. Treated plants were held in a greenhouse for 2 days and were assessed for aphid mortality using a scoring system, judging the response in comparison with plants treated with 50% aqueous acetone alone, as controls. Each treatment was replicated 4 times.

[2] = system: larvae of Rhipicephalus appendiculatus; experiment: Test 4: tick larvae on guinea-pigs given subcutaneous injections; conditions: for percentage survival through moulting of engorged tick larvae: recovered ticks kept at 23° C. for 14 to 21 days; for Result: ticks recovered / number of engorged ticks / Result: ticks recovered / engorgement: 4 subcutaneous injections to guinea-pigs, about 100 hours after infestation
Method: Some 20 larvae of Rhipicephalus appendiculatus were placed in plastic capsules attached to the shaved flank of guinea-pigs. After 3 hours and then at 23 hourly intervals, the guinea-pigs were given a total of 4 subcutaneous injections of the test compound. Approximately 100 hours after infestation, the guinea-pigs were killed and the engorged tick larvae recovered, counter and kept at 23° C. in a humidity cabinet for 14 to 21 days. After this period, the percentage survival through moulting was assessed.

[3] = system: Plutella xylostella (Diamond-back Moth); experiment: whole plant or invertebrate; conditions: foliar
How it was run: (§2)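 Compounds were diluted in 50% aqueous acetone and sprayed in a Potter Tower onto turnip leaf discs in agar, each infested with 10 larvae (2nd instar Plutella, 3rd instar Phaedon), with four replicates per treatment. Mean percentage larval mortality was scored 4–5 days later at 25 °C.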

[4] = system: Phaedon cochleariae (Mustard Beetle); experiment: Test 3 a): leaf disc spray test, Phaedon cochleariae larvae; conditions: Phaedon cochleariae, foliar, read-out: Phaedon % m 10 ppm
How it was run: as §2

[5] = system: Megoura viciae (Vetch Aphid); experiment: Test 3 b): spray of infested tic bean plants, Megoura viciae
Method: as §1
b) Megoura viciae (Vetch Aphid)
Potted tic bean plants previously infected with mixed stages of Megoura were sprayed to run-off using a laboratory turntable sprayer. Treated plants were held in a greenhouse for 2 days and were assessed for aphid mortality using a scoring system, judging the response in comparison with plants treated with 50% aqueous acetone alone, as controls.

[6] = system: Spodoptera littoralis (Egyptian Cotton Worm); experiment: Test 2: leaf disc spray test, Spodoptera littoralis larvae; conditions: foliar, application of 500 ppm, 2nd instar larvae on French bean leaf discs, sprayed
Description: One or more of the dilutions of the compounds to be tested were made in 50% aqueous acetone.
Test species: Spodoptera littoralis (Egyptian Cotton Worm)
French bean leaf discs were set in agar in petri dishes and infected with 5 2nd instar larvae. Four replicate dishes were assigned to each treatment and were sprayed under a Potter Tower with the appropriate test dilution. After 2 days, live larvae were transferred to similar dishes containing untreated leaves set in agar. Two or three days later, the dishes were removed from the constant temperature (25° C.) room in which they had been held and the mean percentage mortalities of larvae were determined.

Periplaneta americana = experiment: Test 5: injection into cockroaches; conditions: dose of 5 micrograms/g insect body weight, injected in acetone; five days after treatment
Method: 0.2 microliters of an acetone solution of the compound was injected through the soft cuticle between the leg and thorax of ten insects, to give a dose rate of 5 micrograms per g of insect body weight. Ten cockroaches were similarity injected with 0.2 microliters of acetone alone to serve as controls. After treatment the insects were held in plastic boxes with appropriate food. Five days after treatment the numbers of dead and alive insects were counted and percentage mortalities calculated.

[7] = Dose 2.5 mg/kg at each repetition
[8] = Dose 3 mg/kg at each repetition
[9] = Dose 4 mg/kg at each repetition
[10] = Dose 5 mg/kg at each repetition

Compound: CCC(C)Sc1c(C#N)nn(-c2c(Cl)cc(C(F)(F)F)cc2Cl)c1N (stereo not drawn) [Compound 74, 5-Amino-3-cyano-1-(2,6-dichloro-4-trifluoromethylphenyl)-4-(1-methylpropylthio)pyrazole]
- score against all stages of Megoura viciae [1]: 7/12

Compound: N#Cc1c(C(F)(F)F)nn(-c2c(Cl)cc(C(F)(F)F)cc2Cl)c1N [Compound 113, 5-Amino-4-cyano-1-(2,6-dichloro-4-trifluoromethylphenyl)-3-trifluoromethylpyrazole]
- percentage survival through moulting of engorged tick larvae ([2]; Dose 1.0 mg/kg at each repetition): only 47.9 percent survived
- percentage survival through moulting of engorged tick larvae [2, 7]: only 30.0 percent survived
- Result: ticks recovered / number of engorged ticks [2, 8]: reduced
- percentage survival through moulting of engorged tick larvae [2, 8]: 8.3%
- Result: ticks recovered / engorgement [2, 9]: No ticks recovered
- Result: ticks recovered / engorgement [2, 10]: No ticks recovered
- mortality at 500 ppm ([3]; read-out: mortality of larvae of Plutella xylostella): 100%
- pest or weed control at 10 ppm [4]: 100%
- mortality at 50 ppm ([5]; Megoura viciae, read-out: mortality of Megoura viciae): 100%
- score from 4 replicates, Megoura viciae ([5]; Test 3 method (b), application of 50 ppm, score 0-3 per replicate, maximum 12): 12

Compound: CC(=O)Nc1c([N+](=O)[O-])c(Cl)nn1-c1c(Cl)cc(C(F)(F)F)cc1Cl [Compound 103, 5-Acetamido-3-chloro-1-(2,6-dichloro-4-trifluoromethylphenyl)-4-nitropyrazole]
- mortality at 500 ppm [6]: ≥ 70%

Compound: CC(C)[S+]([O-])c1c(C#N)nn(-c2c(Cl)cc(C(F)(F)F)cc2Cl)c1N (stereo not drawn) [Compound 58, 5-Amino-3-cyano-1-(2,6-dichloro-4-trifluoromethylphenyl)-4-isopropylsulphinylpyrazole]
- score against all stages of Megoura viciae [1]: 7/12

Compound: CC(=O)Nc1c(C#N)c(C#N)nn1-c1c(Cl)cc(C(F)(F)F)cc1Cl [Compound 120, 5-Acetamido-1-(2,6-dichloro-4-trifluoromethylphenyl)-3,4-dicyanopyrazole]
- percentage survival through moulting of engorged tick larvae [2, 7]: only 62.5 percent survived
- Result: ticks recovered / number of engorged ticks [2, 8]: Less than five engorged ticks
- Result: ticks recovered / engorgement [2, 9]: No ticks recovered
- Result: ticks recovered / engorgement [2, 10]: No ticks recovered

Compound: Nc1c([N+](=O)[O-])c(Cl)nn1-c1c(Cl)cc(C(F)(F)F)cc1Cl [Compound 106, 5-Amino-3-chloro-1-(2,6-dichloro-4-trifluoromethylphenyl)-4-nitropyrazole]
- mortality at 500 ppm [6]: ≥ 70%

Compound: N#Cc1nn(-c2ccc(C(F)(F)F)cc2Cl)c(N)c1C#N [Compound 125, 5-Amino-1-(2-chloro-4-trifluoromethylphenyl)-3,4-dicyanopyrazole]
- mortality of Periplaneta americana (Periplaneta americana): 100%

Compound: N#Cc1nn(-c2c(Cl)cc(C(F)(F)F)cc2Cl)c(N)c1C#N [Compound 110, 5-Amino-1-(2,6-dichloro-4-trifluoromethylphenyl)-3,4-dicyanopyrazole]
- mortality of Periplaneta americana (Periplaneta americana): 100%
- pest or weed control at 500 ppm ([3]; read-out: Plutella % m 500 ppm): 89%
- pest or weed control at 10 ppm [4]: 100%

Compound: CC(C)(C)C(=O)Nc1c(C#N)c(C#N)nn1-c1c(Cl)cc(C(F)(F)F)cc1Cl [Compound 134, 1-(2,6-Dichloro-4-trifluoromethylphenyl)-3,4-dicyano-5-(2,2-dimethylpropionamido)-pyrazole]
- Result: ticks recovered / engorgement [2, 10]: Less than five engorged ticks
- Result: ticks recovered / engorgement ([2]; Dose 10 mg/kg at each repetition): No ticks recovered

Compound: CC(C)CSc1c(C#N)nn(-c2c(Cl)cc(C(F)(F)F)cc2Cl)c1N [Compound 73, 5-Amino-3-cyano-1-(2,6-dichloro-4-trifluoromethylphenyl)-4-(2-methylpropylthio)pyrazole]
- score against all stages of Megoura viciae [1]: 7/12

Compound: CC(=O)Nc1c(C#N)c(C(F)(F)F)nn1-c1c(Cl)cc(C(F)(F)F)cc1Cl [Compound 133, 5-Acetamido-4-cyano-1-(2,6-dichloro-4-trifluoromethylphenyl)-3-trifluoromethylpyrazole]
- Result: ticks recovered / engorgement [2, 7]: No ticks recovered
- Result: ticks recovered / engorgement [2, 10]: No ticks recovered
- Result: ticks recovered / engorgement ([2]; Dose 15 mg/kg at each repetition): No ticks recovered
- mortality at 100 ppm ([3]; read-out: Plutella % mortality at 100 ppm): 21%
- pest or weed control at 10 ppm [4]: 100%

Compound: CCCSc1c(C#N)nn(-c2c(Cl)cc(C(F)(F)F)cc2Cl)c1N [Compound 71, 5-Amino-3-cyano-1-(2,6-dichloro-4-trifluoromethylphenyl)-4-propylthiopyrazole]
- score against all stages of Megoura viciae [1]: 7/12

Compound: N#Cc1nn(-c2c(Cl)cc(C(F)(F)F)cc2Cl)c(N)c1[N+](=O)[O-] [Compound 107, 5-Amino-3-cyano-1-(2,6-dichloro-4-trifluoromethylphenyl)-4-nitropyrazole]
- mortality at 500 ppm [6]: ≥ 70%

Compound: CC(C)Sc1c(C#N)nn(-c2c(Cl)cc(C(F)(F)F)cc2Cl)c1N [Compound 72, 5-Amino-3-cyano-1-(2,6-dichloro-4-trifluoromethylphenyl)-4-isopropylthiopyrazole]
- score against all stages of Megoura viciae [1]: 7/12

Compound: CC(=O)Nc1c([N+](=O)[O-])c(C#N)nn1-c1c(Cl)cc(C(F)(F)F)cc1Cl [Compound 104, 5-Acetamido-3-cyano-1-(2,6-dichloro-4-trifluoromethylphenyl)-4-nitropyrazole]
- mortality at 500 ppm [6]: ≥ 70%

Compound: CC(=O)Nc1c([N+](=O)[O-])c(Br)nn1-c1c(Cl)cc(C(F)(F)F)cc1Cl [Compound 102, 5-Acetamido-3-bromo-1-(2,6-dichloro-4-trifluoromethylphenyl)-4-nitropyrazole]
- mortality at 500 ppm [6]: ≥ 70%

Compound: Nc1c([N+](=O)[O-])c(Br)nn1-c1c(Cl)cc(C(F)(F)F)cc1Cl [Compound 105, 5-Amino-3-bromo-1-(2,6-dichloro-4-trifluoromethylphenyl)-4-nitropyrazole]
- mortality at 500 ppm [6]: ≥ 70%

Compound: N#Cc1nn(-c2c(Cl)cc(C(F)(F)F)cc2Cl)c(N)c1SC(Cl)(Cl)Cl [Compound 11, 5-Amino-3-cyano-1-(2,6-dichloro-4-trifluoromethylphenyl)-4-trichloromethylthiopyrazole]
- score against all stages of Megoura viciae [1]: 7/12

Compound: N#Cc1nn(-c2c(Cl)cc(C(F)(F)F)cc2Cl)c(NC(=O)C2CC2)c1C#N [Compound 122, 5-Cyclopropylcarbonamido-1-(2,6-dichloro-4-trifluoromethylphenyl)-3,4-dicyanopyrazole]
- mortality of Periplaneta americana (Periplaneta americana): 100%

Compound: C=CCSc1c(C#N)nn(-c2c(Cl)cc(C(F)(F)F)cc2Cl)c1N [Compound 75, 4-Allylthio-5-amino-3-cyano-1-(2,6-dichloro-4-trifluoromethylphenyl)pyrazole]
- score against all stages of Megoura viciae [1]: 7/12
